Tests used:
Test in all cases: KINOMEscan competition binding
Settings in all cases: compound 0.1 µM
STK35 (human) = STK35 (human) (UniProt Q8TDR2)
EPHA5 (human) = EPHA5 (human) (UniProt P54756)
[1] = system: ABL1 (human), P00519 [H396P]
TGFBR1 (human) = TGFBR1 (human) (UniProt P36897)
BMPR2 (human) = BMPR2 (human) (UniProt Q13873)
MAPK12 (human) = MAPK12 (human) (UniProt P53778)
EPHA1 (human) = EPHA1 (human) (UniProt P21709)
[2] = system: MET (human), P08581 [M1250T]
GSG2 (human) = GSG2 (human) (UniProt Q8TF76)
TAOK1 (human) = TAOK1 (human) (UniProt Q7L7X3)
DAPK1 (human) = DAPK1 (human) (UniProt P53355)
AURKB (human) = AURKB (human) (UniProt Q96GD4)
PIK3CA (human) = PIK3CA (human) (UniProt P42336)
CDK15 (human) = CDK15 (human) (UniProt Q96Q40)
STK16 (human) = STK16 (human) (UniProt O75716)
OXSR1 (human) = OXSR1 (human) (UniProt O95747)
PRKCI (human) = PRKCI (human) (UniProt P41743)
[3] = system: RET (human), P07949 [V804M]
[4] = system: PIK3CA (human), P42336 [I800L]
TAOK3 (human) = TAOK3 (human) (UniProt Q9H2K8)
MAST1 (human) = MAST1 (human) (UniProt Q9Y2H9)
CDK14 (human) = CDK14 (human) (UniProt O94921)
RPS6KA3 KD2 (human) = RPS6KA3 KD2 (human) (UniProt P51812)
SRPK2 (human) = SRPK2 (human) (UniProt P78362)
CAMK2B (human) = CAMK2B (human) (UniProt Q13554)
BRAF (human) = BRAF (human) (UniProt P15056)
[5] = system: ABL1 (human), P00519 [E255K]
BLK (human) = BLK (human) (UniProt P51451)
CSK (human) = CSK (human) (UniProt P41240)
PDPK1 (human) = PDPK1 (human) (UniProt O15530)
GRK1 (human) = GRK1 (human) (UniProt Q15835)
CAMK1G (human) = CAMK1G (human) (UniProt Q96NX5)
[6] = system: EGFR (human), P00533 [T790M]
EPHA6 (human) = EPHA6 (human) (UniProt Q9UF33)
PRKCQ (human) = PRKCQ (human) (UniProt Q04759)
ADCK3 (human) = ADCK3 (human) (UniProt Q8NI60)
MAP3K14 (human) = MAP3K14 (human) (UniProt Q99558)
NUAK1 (human) = NUAK1 (human) (UniProt O60285)
CSNK1G2 (human) = CSNK1G2 (human) (UniProt P78368)
[7] = system: EGFR (human), P00533 [G719S]

DAPK1 (human), sequence (P53355 whole entry, looked up): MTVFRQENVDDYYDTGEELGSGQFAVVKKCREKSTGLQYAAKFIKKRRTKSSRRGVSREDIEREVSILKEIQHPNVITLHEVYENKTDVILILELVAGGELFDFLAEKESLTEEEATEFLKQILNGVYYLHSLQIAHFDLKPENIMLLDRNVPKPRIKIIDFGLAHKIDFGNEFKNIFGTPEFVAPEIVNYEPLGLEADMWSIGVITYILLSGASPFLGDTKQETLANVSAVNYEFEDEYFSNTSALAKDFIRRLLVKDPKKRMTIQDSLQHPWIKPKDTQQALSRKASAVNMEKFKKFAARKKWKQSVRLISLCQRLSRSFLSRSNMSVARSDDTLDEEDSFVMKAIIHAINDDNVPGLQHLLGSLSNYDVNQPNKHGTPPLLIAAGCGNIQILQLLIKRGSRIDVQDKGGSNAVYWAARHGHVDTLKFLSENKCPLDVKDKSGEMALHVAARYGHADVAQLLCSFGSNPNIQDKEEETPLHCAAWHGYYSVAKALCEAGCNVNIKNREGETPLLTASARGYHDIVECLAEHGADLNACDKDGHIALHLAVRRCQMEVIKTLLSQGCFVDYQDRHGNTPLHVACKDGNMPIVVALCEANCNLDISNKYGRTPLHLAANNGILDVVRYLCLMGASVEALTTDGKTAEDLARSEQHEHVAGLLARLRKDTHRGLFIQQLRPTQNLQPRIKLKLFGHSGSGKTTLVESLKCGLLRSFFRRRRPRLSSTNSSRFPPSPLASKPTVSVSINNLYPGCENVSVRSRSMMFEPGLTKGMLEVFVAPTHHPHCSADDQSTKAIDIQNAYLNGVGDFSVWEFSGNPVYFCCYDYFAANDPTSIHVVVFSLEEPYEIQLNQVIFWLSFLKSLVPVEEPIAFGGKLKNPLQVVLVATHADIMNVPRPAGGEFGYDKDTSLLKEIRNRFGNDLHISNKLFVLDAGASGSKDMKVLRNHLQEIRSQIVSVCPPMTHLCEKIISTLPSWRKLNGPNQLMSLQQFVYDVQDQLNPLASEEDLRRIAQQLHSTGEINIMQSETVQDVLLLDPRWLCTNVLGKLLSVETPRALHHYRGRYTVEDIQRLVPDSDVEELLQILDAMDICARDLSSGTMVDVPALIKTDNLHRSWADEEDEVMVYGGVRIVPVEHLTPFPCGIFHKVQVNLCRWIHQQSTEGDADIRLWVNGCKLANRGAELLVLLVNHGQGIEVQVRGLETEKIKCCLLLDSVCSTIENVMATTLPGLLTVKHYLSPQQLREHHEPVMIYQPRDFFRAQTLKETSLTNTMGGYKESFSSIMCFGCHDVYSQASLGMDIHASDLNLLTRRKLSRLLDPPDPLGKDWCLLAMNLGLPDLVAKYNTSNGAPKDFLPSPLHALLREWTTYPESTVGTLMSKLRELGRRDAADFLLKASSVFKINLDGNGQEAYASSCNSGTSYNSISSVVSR
STK16 (human), sequence (O75716 whole entry, looked up): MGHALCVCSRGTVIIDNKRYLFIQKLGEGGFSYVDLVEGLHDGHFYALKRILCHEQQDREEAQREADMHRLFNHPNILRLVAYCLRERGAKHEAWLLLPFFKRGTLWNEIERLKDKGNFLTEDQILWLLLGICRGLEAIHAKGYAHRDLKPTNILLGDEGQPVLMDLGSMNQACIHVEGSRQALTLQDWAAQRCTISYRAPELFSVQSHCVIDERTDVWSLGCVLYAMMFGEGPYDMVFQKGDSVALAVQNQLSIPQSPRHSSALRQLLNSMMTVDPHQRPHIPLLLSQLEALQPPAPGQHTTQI
RPS6KA3 KD2 (human), sequence (P51812 whole entry, looked up): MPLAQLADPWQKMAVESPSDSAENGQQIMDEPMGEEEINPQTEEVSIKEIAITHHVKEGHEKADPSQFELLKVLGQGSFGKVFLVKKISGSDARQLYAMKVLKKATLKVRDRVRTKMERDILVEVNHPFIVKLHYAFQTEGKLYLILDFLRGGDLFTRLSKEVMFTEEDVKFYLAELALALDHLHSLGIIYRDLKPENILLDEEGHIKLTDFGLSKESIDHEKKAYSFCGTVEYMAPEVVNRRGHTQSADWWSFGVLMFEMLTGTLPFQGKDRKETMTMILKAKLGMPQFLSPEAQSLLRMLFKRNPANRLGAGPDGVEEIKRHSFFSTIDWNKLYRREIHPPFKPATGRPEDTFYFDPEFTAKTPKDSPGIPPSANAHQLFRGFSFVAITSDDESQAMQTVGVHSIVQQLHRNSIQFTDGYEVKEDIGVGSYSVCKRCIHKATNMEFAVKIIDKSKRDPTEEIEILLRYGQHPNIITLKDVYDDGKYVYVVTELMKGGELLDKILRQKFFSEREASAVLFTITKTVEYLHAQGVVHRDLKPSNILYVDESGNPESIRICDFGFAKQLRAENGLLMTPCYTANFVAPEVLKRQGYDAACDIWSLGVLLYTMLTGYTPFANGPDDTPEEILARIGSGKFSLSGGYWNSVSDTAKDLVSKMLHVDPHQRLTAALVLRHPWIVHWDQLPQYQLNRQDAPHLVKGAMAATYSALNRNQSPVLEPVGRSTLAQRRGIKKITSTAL
MAP3K14 (human), sequence (Q99558 whole entry, looked up): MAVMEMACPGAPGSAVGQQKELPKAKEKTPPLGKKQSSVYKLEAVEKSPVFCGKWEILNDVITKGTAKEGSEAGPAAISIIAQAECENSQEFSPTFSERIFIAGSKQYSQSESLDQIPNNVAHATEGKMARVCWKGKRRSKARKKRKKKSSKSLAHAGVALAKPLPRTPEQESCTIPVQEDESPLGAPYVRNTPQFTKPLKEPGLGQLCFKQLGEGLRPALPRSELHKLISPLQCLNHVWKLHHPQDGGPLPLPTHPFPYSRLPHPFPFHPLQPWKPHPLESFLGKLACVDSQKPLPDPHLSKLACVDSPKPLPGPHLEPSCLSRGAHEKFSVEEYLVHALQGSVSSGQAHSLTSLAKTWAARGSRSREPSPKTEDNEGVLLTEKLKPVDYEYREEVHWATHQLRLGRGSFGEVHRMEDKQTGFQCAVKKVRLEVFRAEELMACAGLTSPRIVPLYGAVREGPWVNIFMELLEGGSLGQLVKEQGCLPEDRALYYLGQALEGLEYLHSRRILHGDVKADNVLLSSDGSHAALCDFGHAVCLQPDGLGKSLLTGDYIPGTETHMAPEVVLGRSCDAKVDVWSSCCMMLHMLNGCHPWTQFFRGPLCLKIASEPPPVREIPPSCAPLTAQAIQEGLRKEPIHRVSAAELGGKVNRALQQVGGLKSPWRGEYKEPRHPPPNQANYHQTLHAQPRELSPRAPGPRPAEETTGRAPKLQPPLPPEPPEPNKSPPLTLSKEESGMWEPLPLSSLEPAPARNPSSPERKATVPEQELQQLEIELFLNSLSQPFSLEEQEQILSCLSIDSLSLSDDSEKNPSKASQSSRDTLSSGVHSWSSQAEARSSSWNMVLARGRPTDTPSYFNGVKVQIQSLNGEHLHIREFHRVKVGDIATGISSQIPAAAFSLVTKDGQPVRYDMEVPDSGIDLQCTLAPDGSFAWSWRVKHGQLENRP
CAMK2B (human), sequence (Q13554 whole entry, looked up): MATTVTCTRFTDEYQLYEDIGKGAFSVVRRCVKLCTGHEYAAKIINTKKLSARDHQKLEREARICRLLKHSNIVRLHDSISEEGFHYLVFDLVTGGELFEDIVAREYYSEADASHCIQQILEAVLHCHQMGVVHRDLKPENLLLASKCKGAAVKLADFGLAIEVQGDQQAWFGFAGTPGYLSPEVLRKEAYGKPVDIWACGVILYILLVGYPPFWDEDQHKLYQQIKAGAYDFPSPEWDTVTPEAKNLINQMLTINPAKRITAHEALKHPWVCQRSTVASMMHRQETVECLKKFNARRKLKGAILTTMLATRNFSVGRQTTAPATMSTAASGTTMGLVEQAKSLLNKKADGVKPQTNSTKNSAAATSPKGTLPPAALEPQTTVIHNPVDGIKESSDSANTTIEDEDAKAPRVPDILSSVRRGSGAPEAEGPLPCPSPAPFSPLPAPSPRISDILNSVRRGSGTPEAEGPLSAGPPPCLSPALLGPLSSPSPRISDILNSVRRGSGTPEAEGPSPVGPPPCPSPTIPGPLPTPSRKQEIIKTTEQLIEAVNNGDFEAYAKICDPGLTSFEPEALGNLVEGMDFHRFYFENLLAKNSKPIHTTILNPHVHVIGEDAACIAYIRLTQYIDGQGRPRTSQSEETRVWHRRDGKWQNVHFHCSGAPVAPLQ
CAMK1G (human), sequence (Q96NX5 whole entry, looked up): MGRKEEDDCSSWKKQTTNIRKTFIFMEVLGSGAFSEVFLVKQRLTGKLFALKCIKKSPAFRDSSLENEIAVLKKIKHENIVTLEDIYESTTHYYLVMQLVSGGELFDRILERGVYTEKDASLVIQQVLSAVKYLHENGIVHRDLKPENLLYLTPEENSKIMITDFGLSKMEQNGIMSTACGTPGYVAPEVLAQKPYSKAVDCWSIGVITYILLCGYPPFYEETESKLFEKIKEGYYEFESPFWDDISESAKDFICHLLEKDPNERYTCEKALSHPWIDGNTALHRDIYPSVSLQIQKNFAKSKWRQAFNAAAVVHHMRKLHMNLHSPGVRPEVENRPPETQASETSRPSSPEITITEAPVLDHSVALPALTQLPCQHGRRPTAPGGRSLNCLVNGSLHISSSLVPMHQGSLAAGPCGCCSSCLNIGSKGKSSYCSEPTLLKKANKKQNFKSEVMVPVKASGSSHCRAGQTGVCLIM
CSK (human), sequence (P41240 whole entry, looked up): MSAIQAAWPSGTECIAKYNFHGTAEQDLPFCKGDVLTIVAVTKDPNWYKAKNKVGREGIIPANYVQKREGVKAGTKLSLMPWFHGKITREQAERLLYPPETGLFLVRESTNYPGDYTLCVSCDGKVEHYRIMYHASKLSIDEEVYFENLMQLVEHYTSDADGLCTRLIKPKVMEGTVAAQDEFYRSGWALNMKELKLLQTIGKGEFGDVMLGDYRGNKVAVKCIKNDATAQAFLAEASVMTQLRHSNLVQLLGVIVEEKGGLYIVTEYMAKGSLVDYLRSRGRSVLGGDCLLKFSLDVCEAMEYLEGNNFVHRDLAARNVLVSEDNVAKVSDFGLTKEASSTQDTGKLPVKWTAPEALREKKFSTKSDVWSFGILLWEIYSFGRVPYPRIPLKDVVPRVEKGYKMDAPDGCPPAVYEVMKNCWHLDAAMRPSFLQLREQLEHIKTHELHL

CCc1ccc(C(=O)Nc2cc(CN3CCN(C)CC3)cc(C(F)(F)F)c2)cc1C#Cc1cnc2ccnn2c1
kinase still bound, per cent of control (STK35 (human)): 100%
kinase still bound, per cent of control (EPHA5 (human)): 100%
kinase still bound, per cent of control [1]: 100%
kinase still bound, per cent of control (TGFBR1 (human)): 100%
kinase still bound, per cent of control (BMPR2 (human)): 90%
kinase still bound, per cent of control (MAPK12 (human)): 72%
kinase still bound, per cent of control (EPHA1 (human)): 86%
kinase still bound, per cent of control [2]: 85%
kinase still bound, per cent of control (GSG2 (human)): 75%
kinase still bound, per cent of control (TAOK1 (human)): 100%
kinase still bound, per cent of control (DAPK1 (human)): 100%
kinase still bound, per cent of control (AURKB (human)): 100%
kinase still bound, per cent of control (PIK3CA (human)): 100%
kinase still bound, per cent of control (CDK15 (human)): 100%
kinase still bound, per cent of control (STK16 (human)): 71%
kinase still bound, per cent of control (OXSR1 (human)): 100%
kinase still bound, per cent of control (PRKCI (human)): 100%
kinase still bound, per cent of control [3]: 80%
kinase still bound, per cent of control [4]: 100%
kinase still bound, per cent of control (TAOK3 (human)): 100%
kinase still bound, per cent of control (MAST1 (human)): 100%
kinase still bound, per cent of control (CDK14 (human)): 81%
kinase still bound, per cent of control (RPS6KA3 KD2 (human)): 100%
kinase still bound, per cent of control (SRPK2 (human)): 75%
kinase still bound, per cent of control (CAMK2B (human)): 72%
kinase still bound, per cent of control (BRAF (human)): 53%
kinase still bound, per cent of control [5]: 100%
kinase still bound, per cent of control (BLK (human)): 100%
kinase still bound, per cent of control (CSK (human)): 92%
kinase still bound, per cent of control (PDPK1 (human)): 100%
kinase still bound, per cent of control (GRK1 (human)): 100%
kinase still bound, per cent of control (CAMK1G (human)): 71%
kinase still bound, per cent of control [6]: 100%
kinase still bound, per cent of control (EPHA6 (human)): 63%
kinase still bound, per cent of control (PRKCQ (human)): 80%
kinase still bound, per cent of control (ADCK3 (human)): 90%
kinase still bound, per cent of control (MAP3K14 (human)): 85%
kinase still bound, per cent of control (NUAK1 (human)): 100%
kinase still bound, per cent of control (CSNK1G2 (human)): 100%
kinase still bound, per cent of control [7]: 100%

— the kinase profiling compilation of Christmann-Franck et al. (2016)
